Results: patent US20230309556A1, “HERBICIDAL COMPOSITIONS RELATED TO OXALOACETATE AND METHODS AND USE THEREOF” (priority 2021, published 2023)

System: plants
Assay: general screening of the herbicidal effect
Assay type: in vivo
Conditions: 10% w/w; compared with Roundup RTU and Bayer Advanced at 10% and 100% Label Rate; results shown in FIG. 1
Description: A general screening of the herbicidal effect of the following compounds was carried out: Bayer Advanced (100% Label Rate), Bayer Advanced (10% Lable Rate), UTC, Diethyl Oxalacetate (10% w/w), Roundup, rtu (10% Label Rate) and Roundup RTU (100% Label Rate).

CCOC(=O)CC(=O)C(=O)OCC [Diethyl Oxalacetate] was tested, and the herbicidal activity was “comparable to well-known herbicide products such as Roundup and Bayer Advanced”.
